# Measurements taken from PubChem BioAssay (NCI).
#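 Compound exposure: 48 hours, 5 concentrations, 96-well plates. GI50 = concentration required for 50% inhibition of growth. The concentration for full growth arrest is given as TGI.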 Where a SMILES comes first, the peptide text is derived from it. [ ]: non-standard residue; d: D form. pGlu = O=C1CC[CH](C(=O)O)N1
# Columns and labels:
# Experiment in all cases: DTP human tumour cell line panel, 48 h
# HS 578T breast = test system: HS 578T breast
# SR leukemia = test system: SR leukemia
# OVCAR-4 ovarian = test system: OVCAR-4 ovarian
# UACC-62 melanoma = test system: UACC-62 melanoma
# MDA-N = test system: MDA-N
# OVCAR-8 ovarian = test system: OVCAR-8 ovarian
# KM12 colon = test system: KM12 colon
# HCC-2998 colon = test system: HCC-2998 colon
# BT-549 breast = test system: BT-549 breast
Compound,TGI (HS 578T breast) [µM],TGI (SR leukemia) [µM],TGI (OVCAR-4 ovarian) [µM],TGI (UACC-62 melanoma) [µM],TGI (MDA-N) [µM],TGI (OVCAR-8 ovarian) [µM],TGI (KM12 colon) [µM],TGI (HCC-2998 colon) [µM],TGI (BT-549 breast) [µM],GI50 (HS 578T breast) [µM],GI50 (HCC-2998 colon) [µM],GI50 (BT-549 breast) [µM],GI50 (UACC-62 melanoma) [µM],GI50 (OVCAR-8 ovarian) [µM],GI50 (KM12 colon) [µM]
COc1ccc(S(=O)(=O)Nc2ccc(-c3csc(N4C(=O)/C(=C/c5ccccc5)N=C4c4ccccc4)n3)cc2)cc1Cl,> 100,> 100,99.4,> 100,> 100,> 100,> 100,,,,,,,,
COc1nc2ccc(CNc3ccc(C(=O)O)cc3)cc2nc1OC,> 10,,> 10,> 10,> 10,> 10,> 10,> 10,> 10,,,,,,
C=CC[C@@H]1C=C[C@@H](C(=O)OC)n2c(=O)n(-c3ccccc3)c(=O)n21,> 100,> 100,> 100,> 100,,> 100,> 100,> 100,> 100,,,,,,
COc1cc2c(cc1OC(=O)c1cc3ccccc3[nH]1)N=C[C@@H]1CCCN1C2=O,> 100,0.969,2.15,0.707,0.375,,3.15,1.12,5.37,,,,,,
COc1c(-c2cccs2)oc2c(CC(=O)O)cccc2c1=O,,> 100,,> 100,> 100,,,> 100,> 100,,,,,,
COc1ccc(-c2nnc(-c3ccncc3)o2)cc1,> 100,> 100,> 100,> 100,> 100,> 100,,,> 100,,,,,,
O=C(O)CN(CC(=O)O)Cc1ccn(-c2cccc(-n3ccc(CN(CC(=O)O)CC(=O)O)n3)n2)n1,> 100,> 100,,> 100,> 100,> 100,> 100,> 100,> 100,,,,,,
CCNc1cc2c3c(c1)CCCN3CCC2,78.5,27.4,32.3,41,10.9,56.4,29.9,70.8,,,,,,,
CC(C)(C)c1cc(/C=C/C(=O)CC(=O)/C=C/c2cc(C(C)(C)C)c(O)c(C(C)(C)C)c2)cc(C(C)(C)C)c1O,> 50,,> 50,> 50,> 50,> 50,> 50,,> 50,,,,,,
N#CCOc1cccc(C2(N3CC=CCC3)CCCCC2)c1,> 100,> 100,> 100,> 100,> 100,> 100,> 100,,> 100,,,,,,
CC1(C)O[C@H]2OC(CO)C(OS(C)(=O)=O)[C@H]2O1 (some centres undefined),> 100,,,> 100,> 100,> 100,> 100,> 100,,,,,,,
COc1ccc2c(c1)CC1(O)COc3cc(OC)ccc3C1O2 (centres undefined),,> 100,> 100,> 100,> 100,> 100,> 100,> 100,> 100,,,,,,
CC(NC(=O)C(Cc1cnc[nH]1)NC(=O)C1CCC(=O)N1)C(N)=O (stereo not drawn) ([pGlu]-His-Ala-NH2; configuration not given here),> 100,> 100,,> 100,> 100,> 100,> 100,> 100,> 100,,,,,,
Cc1nc2c(Cl)cc(Cl)cc2c(Cl)c1CCCl,> 100,> 100,,> 100,> 100,> 100,> 100,> 100,> 100,,,,,,
CC(O)c1cc2c(s1)C(=O)c1scc(C(C)O)c1C2=O (centres undefined),,> 100,1.73,0.587,0.421,0.857,,3.46,0.403,,,,,,
Cc1ccc(C(=O)C2=CN=C3C(=O)N(c4ccccc4)N(C)C3(C)C2=N)cc1 (centres undefined),,> 100,> 100,> 100,> 100,> 100,> 100,> 100,> 100,,,,,,
Cn1cc(-c2nc(-c3c[nH]c4ccncc34)cs2)c2cc(F)ccc21,4.74,,,3.18,,4.79,3.11,3.08,3.4,2.21,1.64,1.8,1.71,2.11,1.63
COc1ccc(CCNC(=O)CCCCCO)cc1OC,> 100,> 100,> 100,> 100,,> 100,> 100,> 100,> 100,,,,,,
COc1ccc(NCc2cnc3nc(N)nc(N)c3c2C)cc1,> 100,> 100,> 100,> 100,,,> 100,> 31.6,> 100,,,,,,
COC(=O)c1c(O)ccc2c1c1c(n2Cc2ccccc2OC)C(=O)c2ccccc2C1,> 100,> 100,87.9,> 100,> 100,> 100,> 100,,> 100,,,,,,
Cc1cc(C)c2c(=N)c3ccccc3n(CCCCCCn3c4ccccc4c(=N)c4c(C)cc(C)nc43)c2n1,,,3.01,3.26,,3.14,0.973,0.323,2.91,,,,,,
CC(C)=CCCC1(Sc2ccccc2)C(=O)OCC1C=C(C)C (centres undefined),,,> 100,,66.1,> 100,> 100,> 100,> 100,,,,,,
CCOC(=O)c1nc2cc(C(F)(F)F)ccc2nc1Nc1ccc(F)cc1,,,86.1,> 100,> 100,> 100,> 100,> 100,> 100,,,,,,
CC1CC(=O)Nc2ccc(N=NN(C)C)cc2N1C=O (centres undefined),> 100,,> 100,> 100,> 100,> 100,> 100,> 100,> 100,,,,,,
COc1cc(/C=C2\N=C(C)N(n3c(-c4ccccc4)nc4ccccc4c3=O)C2=O)cc(OC)c1OC,> 100,> 100,,> 100,> 100,> 100,> 100,> 100,> 100,,,,,,
